Data reported in patent publication US5770688A, “Method and composition for the treatment of mammalian HIV infection” (GSF-Forschungszentrum fur Umwelt und Gesundheit GmbH, priority 1989, dated 1998).

Key:
[1] = tested on: reverse transcriptase; assay: activity of reverse transcriptase in the supernatant of treated, HIV infected cell culture; type: cell-based
Method: Referring more particularly to FIGS. 1-4, melittin (Seq. ID NO:1) and its specified analogues were tested for their effect on HIV-infected T-lymphoma cells. In this regard the following cell lines were employed in the testing: KE37-1 (uninfected) and KE37-1/111S (infected with HTLV-111β). These infected cells were incubated for a period of seven days under test conditions at a temperature of 37° C. and in the presence of 5% CO2. A culture medium of RPMI 1640 (GIBCO) was employed and was further supplemented with 10% fetal calf serum which contained approximately 100 units of penicillin, 100μ of streptomycin, and approximately 0.25μ fungizone (Amphotericin B) per milliliter. This equals 1 milliliter of antibiotic-antimycotic solution (GIBCO Catalogue No. 043-05240 per 100 ml. of medium.) After a one week incubation period in the presence of various concentrations of the above-identified substances, which were added fresh daily to the medium, the following tests were carried out with the cultures. A first test was conducted for purposes of determining the relative cell concentration as a function of the number of HIV infected cells present by employing an MTT test. […] The optical density (OD) of the solution was determined at=600 nm. […]

[2] = blood serum levels of melittin after injection; type: in vivo, cats
Method: During the experiment it was determined that detectable blood serum levels of melittin (Seq. ID NO:1) of about 5 ng/ml could be detected following an injection of melittin equal to […] a few minutes after injection. […] In vitro data has shown that melittin, after this time interval, is found within the cells where it can be detected in tact for more than 48 hours. The LD50 (lethal dose where 50% of the animals perish) for melittin is not known for cats. In the present experiment, both cats M and G were treated twice weekly with subcutaneous injections over a period of eight weeks. During the first three weeks, each cat received increasing dosages of melittin (Seq. ID NO:1) beginning with a 50 mg/kg bodyweight injection, followed by injections of 100 mg/kg, and then escalating to 150, 225, 375 and 500 mg/kg at the sixth injection. Upon reaching this level, the melittin was administered in a constant dosage of 500 mg/kg twice weekly, for the remaining five weeks. […] The quantitative effect of melittin on FIV replication was determined quantitatively by utilizing FIV-PCR employing nested primers from the gag region. Quantification was based upon the determination of amplified product in identical samples which have been amplified after different cycle times. This is best seen by reference to FIG. 47A. Furthermore, each of the cats were clinically investigated in detail. […]

[3] = disappearance of melittin from culture medium / uptake by cells; type: in vitro ADME
Source text: This means, in essence, that the effect of melittin (Seq. ID NO:1) on the virus is to attack the virus before it is released from an infected cell although it is possible that a reduction in virus numbers may be possible during and immediately after the addition of melittin to a cell culture or otherwise. […] At this point in time, melittin is absent from the culture. […] This observation excludes any effect in the experiments to be explained by a direct effect of melittin on "cell free" virus, that is, virus released into the supernatant.
These characteristics appear to be due to the specific structure of the melittin amphiphilic helix. […] In this regard, treatment was at cultivation start, and measurement of infectivity was seven days post treatment. As was discussed earlier, maximum virus concentration in cultures of this type is not achieved for five days after cultivation. As should be understood and the conclusions which the inventors have drawn from same is that if the reduced viral infectivity seven days post treatment were only due to direct effects of melittin on the virus, then in that event, the melittin or an active fragment would have to be present as late as five days post treatment. […] Moreover, and if the reduction and supernatant infectivity was partly due to reduced virus production as opposed to incorrect virus assembly or destruction of newly synthesized virion, then, in that event, this should be reflected by reduced amounts of viral proteins within the cells and/or in their supernatants of the melittin treated cultures. To determine whether this hypothesis is correct the inventors chose the P24 marker as a marker for viral protein production. […] However, following fourteen hours of incubation with melittin, there is a marked reduction of P24 within the cells as well as in the supernatant (down to 60%).

[4] = in vitro persistence of melittin within cells
[5] = tested on: cell free HIV; assay: influence of melittin on cell free HIV (P24 determination, infectivity); conditions: incubation of cell free HIV

## Gly-Ile-Gly-Ala-Val-Leu-Lys-Val-Leu-Thr-Thr-Gly-Leu-Pro-Ala-Leu-Ile-Ser-Trp-Ile-Lys-Arg-Lys-Arg-Gln-Gln-Amide [melittin]
[1]; 2.5 μg per ml, FIG. 2
  activity of reverse transcriptase (RT%): revert substantially back to zero
[1]; subtoxic concentrations
  activity of reverse transcriptase, in words: inhibition of reverse transcriptase
[2]; in vivo
  disappearance from the serum: disappears quickly from the serum
[2]; injection equal to 200 mg/kg, a few minutes after injection
  detectable blood serum levels: about 5 ng/ml
[3]; after introduction to the culture
  absorption by the cell: absorbed by the cell within hours after introduction to the culture
[3]; cell culture
  half-life of melittin: 19 h
[3]; two hours after addition to the culture
  melittin in the medium: not measurable in the medium two hours after addition to the culture
[4]
  time detectable in tact within the cells: more than 48 hours
[5]
  detection of the P24 antigen: does not impair the detection of the P24 antigen
  virus infectivity of cell free HIV: cause the virus infectivity to be reduced
